Consider 36 compounds from patent US8513462B2, “Pesticides and uses thereof” (Dow AgroSciences LLC, priority 2007, dated 2013).

For the test, the system named is green peach aphid (Myzus persicae). The test can be described thus: Insecticidal test for green peach aphid in foliar spray assay. Format: in vivo. Conditions: 72 h, foliar spray on cabbage, Corrected % Control (Abbott) after three days, read-out: Rating against green peach aphid on cabbage (foliar spray). As to the method:
Squash seedlings with fully expanded cotyledon leaves were trimmed to one cotyledon per plant and infested with cotton aphid (wingless adults and nymphs) 1 day prior to chemical application. Each plant was examined before chemical application to ensure uniform infestation (ca. 30-70 aphids per plant). Compounds (2 mg) were dissolved in 2 ml of acetone:methanol (1:1) solvent, forming stock solutions of 1000 ppm. The stock solutions were diluted 5× with 0.025% Tween 20 in H2O to obtain a solution at 200 ppm. A hand-held Devilbiss aspirator type sprayer was used to apply the spray solutions until runoff to both sides of the squash cotyledon leaves. Four plants (4 replications) were used for each compound. Reference plants (solvent check) were sprayed with the diluent only. Treated plants were held in a holding room for 3 days at approximately 23° C. and 40% RH before the number of live aphids on each plant was recorded. Insecticidal activity was measured by Corrected % Control using Abbott's correction formula and presented in Table 1-Activity: Corrected % Control=100*(X−Y)/X • where X=No. of live aphids on solvent check plants • Y=No. of live aphids on treated plants Results are shown in Table 7. Insecticidal Test for Green Peach Aphid (Myzus persicae) in Foliar Spray Assay Cabbage seedlings grown in 3-inch pots, with 2-3 small (3-5 cm) true leaves, were used as test substrate. The seedlings were infested with 20-50 green peach aphids (wingless adult and nymph) 1-2 days prior to chemical application. Four seedlings were used for each treatment. Compounds (2 mg) were dissolved in 2 ml of acetone:methanol (1:1) solvent, forming stock solutions of 1000 ppm. The stock solutions were diluted 5× with 0.025% Tween 20 in H2O to obtain a solution at 200 ppm. A hand-held Devilbiss aspirator sprayer was used for spraying a solution to both sides of cabbage leaves until runoff. Reference plants (solvent check) were sprayed with the diluent only. Treated plants were held in a holding room for three days at approximately 23° C. and 40% RH prior to grading. Evaluation was conducted by counting the number of live aphids per plant under a microscope. Insecticidal activity was measured by using Abbott's correction formula: Corrected % Control=100*(X−Y)/X • where X=No. of live aphids on solvent check plants • Y=No. of live aphids on treated plants

Where only a bound is given, the exact number is not on record here.

With `Cc1oc(N=S(C)(=O)C(C)c2ccc(C(F)(F)F)nc2)nc1-c1ccc(Br)cc1` (stereo not drawn) [Compound 73], the pest or weed control at 200 ppm was in the range of 80 to 100%.

For the compound `CC(c1ccc(C(F)(F)F)nc1)S(C)(=O)=Nc1nc(C(F)(F)F)cs1` (stereo not drawn) [Compound 26, 3-[1-ethyl(N-(2-(4-trifluoromethyl)thiazole)-sulfoximinyl)(methyl)]-6-trifluoromethylpyridine], the pest or weed control at 200 ppm was 80 to 100%.

`Cc1nc(N=S(C)(=O)C(C)c2ccc(C(F)(F)F)nc2)oc1C` (stereo not drawn) [Compound 72]: the pest or weed control at 200 ppm is under 80%.

As to `CC(c1ccc(C(F)(F)F)nc1)S(C)(=O)=Nc1nc(-c2ccncc2)cs1` (stereo not drawn) [Compound 34], the pest or weed control at 200 ppm was 80 to 100%.

For the compound `Cc1ccc(-c2csc(N=S(C)(=O)C(C)c3ccc(C(F)(F)F)nc3)n2)cc1` (stereo not drawn) [Compound 19, 5-{1-[methyl(4-(4-methylphenyl)-1,3-thiazol-2-yl)sulfonimidoyl]ethyl}-2-(trifluoromethyl)pyridine], the pest or weed control at 200 ppm was 80 to 100%.

As for `CC(c1ccc(C(F)(F)F)nc1)S(C)(=O)=Nc1nc2c(s1)CCc1nonc1-2` (racemic) [Compound 65, 7-[(methyl(oxo){1-[6-(trifluoromethyl)-3-pyridinyl]ethyl}-λ^6-sulfanylidene)amino]-4,5-dihydro[1,3]thiazolo[4,5-e][2,1,3]-benzoxadiazole], the pest or weed control at 200 ppm lay within 80 to 100%.

As to `Cc1csc(N=S(C)(=O)C(C)c2ccc(C(F)(F)F)nc2)n1` (stereo not drawn) [Compound 14], the pest or weed control at 200 ppm is under 80%.

Turning to `CC(c1ccc(C(F)(F)F)nc1)S(C)(=O)=Nc1nc(-c2ccc(Cl)cc2)cs1` (stereo not drawn) [Compound 22], the pest or weed control at 200 ppm lay in the range of 80 to 100%.

For `Cc1ccsc1-c1nc(N=S(C)(=O)C(C)c2ccc(C(F)(F)F)nc2)sc1C` (stereo not drawn) [Compound 36], the pest or weed control at 200 ppm lay in the range of 80 to 100%.

Take `CC(c1ccc(C(F)(F)F)nc1)S(C)(=O)=Nc1nc(-c2csc3ccccc23)cs1` (stereo not drawn) [Compound 40]: the pest or weed control at 200 ppm was in the range of 80 to 100%.

Turning to `Cc1cc(-c2csc(N=S(C)(=O)C(C)c3ccc(C(F)(F)F)nc3)n2)ccc1Cl` (stereo not drawn) [Compound 50], the pest or weed control at 200 ppm was in the range of 80 to 100%.

Consider `CC(c1ccc(C(F)(F)F)nc1)S(C)(=O)=Nc1nc2ccccc2s1` (stereo not drawn) [Compound 25, 3-[1-ethyl(N-(2-benzothiazole)-sulfoximinyl)(methyl)]-6-trifluoromethylpyridine], for which the pest or weed control at 200 ppm was under 80%.

Regarding `CSCc1cnc(N=S(C)(=O)C(C)c2ccc(C(F)(F)F)nc2)s1` (stereo not drawn) [Compound 64, 5-[1-(methyl{5-[(methylsulfanyl)methyl]-1,3-thiazol-2-yl}sulfonimidoyl)ethyl]-2-(trifluoromethyl)pyridine], the pest or weed control at 200 ppm is 80 to 100%.

`CC(c1ccc(C(F)(F)F)nc1)S(C)(=O)=Nc1cc(F)ccn1` (stereo not drawn) [Compound 3, 3-[1-ethyl(N-(2-(4-fluoro)pyridine)-sulfoximinyl)(methyl)]-6-trifluoromethylpyridine]: the pest or weed control at 200 ppm is 80 to 100%.

For `CC(c1ccc(C(F)(F)F)nc1)S(C)(=O)=Nc1nc(-c2cccc(Cl)c2)cs1` (stereo not drawn) [Compound 21], the pest or weed control at 200 ppm was in the range of 80 to 100%.

Regarding `Cc1sc(N=S(C)(=O)C(C)c2ccc(C(F)(F)F)nc2)nc1-c1ccccc1` (stereo not drawn) [Compound 66, 5-{1-[methyl(5-methyl-4-phenyl-1,3-thiazol-2-yl)sulfonimidoyl]ethyl}-2-(trifluoromethyl)pyridine], the pest or weed control at 200 ppm was 80 to 100%.

On to `CC(c1ccc(C(F)(F)F)nc1)S(C)(=O)=Nc1nc(-c2ccc(Cl)c(Cl)c2)cs1` (stereo not drawn) [Compound 20], for which the pest or weed control at 200 ppm lay in the range of 80 to 100%.

In the case of `CC(c1ccc(C(F)(F)F)nc1)S(C)(=O)=Nc1cccc(C(F)(F)F)n1` (stereo not drawn) [Compound 11], the pest or weed control at 200 ppm was under 80%.

Turning to `CCOC(=O)c1csc(N=S(C)(=O)C(C)c2ccc(C(F)(F)F)nc2)n1` (stereo not drawn) [Compound 18], the pest or weed control at 200 ppm is 80 to 100%.

In the case of `COc1ccc(-c2csc(N=S(C)(=O)Cc3ccc(Cl)nc3)n2)cc1` (stereo not drawn) [Compound 57, 5-{[methyl[4-(4-methoxyphenyl)-1,3-thiazol-2-yl]sulfonimidoyl]methyl}-2-chloropyridine], the pest or weed control at 200 ppm is under 80%.

Turning to `CC(c1ccc(C(F)(F)F)nc1)S(C)(=O)=Nc1cccc(F)n1` (stereo not drawn) [Compound 10], the pest or weed control at 200 ppm was under 80%.

Turning to `CC(c1ccc(C(F)(F)F)nc1)S(C)(=O)=Nc1ncc(-c2ccccc2)s1` (stereo not drawn) [Compound 62, 5-{1-[methyl(5-phenyl-1,3-thiazol-2-yl)sulfonimidoyl]ethyl}-2-(trifluoromethyl)pyridine], the pest or weed control at 200 ppm lay in the range of 80 to 100%.

Turning to `CCc1csc(N=S(C)(=O)C(C)c2ccc(C(F)(F)F)nc2)n1` (stereo not drawn) [Compound 28], the pest or weed control at 200 ppm was in the range of 80 to 100%.

As for `CC(c1ccc(C(F)(F)F)nc1)S(C)(=O)=Nc1nnc(C(F)F)s1` (racemic) [Compound 69, 5-{1-[[5-(difluoromethyl)-1,3,4-thiadiazol-2-yl](methyl)sulfonimidoyl]ethyl}-2-(trifluoromethyl)pyridine], the pest or weed control at 200 ppm was in the range of 80 to 100%.

For the compound `O=S1(=Nc2nc(C(F)(F)F)cs2)CCCC1c1ccc(Cl)nc1` (stereo not drawn) [Compound 79], the pest or weed control at 200 ppm lay in the range of 80 to 100%.

On to `CC(c1ccc(C(F)(F)F)nc1)S(C)(=O)=Nc1ncc(C#N)s1` (stereo not drawn) [Compound 16], for which the pest or weed control at 200 ppm lay within 80 to 100%.

For the compound `CCCCC(c1ccc(C(F)(F)F)nc1)S(C)(=O)=Nc1nc(-c2ccc(OC)cc2)cs1` (stereo not drawn) [Compound 60, 5-{1-[methyl(4-(4-methoxyphenyl)-1,3-thiazol-2-yl)sulfonimidoyl]pentyl}-2-(trifluoromethyl)pyridine], the pest or weed control at 200 ppm was under 80%.

For the compound `Cc1sc(N=S(C)(=O)C(C)c2ccc(C(F)(F)F)nc2)nc1-c1ccc(Br)cc1` (stereo not drawn) [Compound 68, 5-{1-[[4-(4-bromophenyl)-5-methyl-1,3-thiazol-2-yl](methyl)sulfonimidoyl]ethyl}-2-(trifluoromethyl)pyridine], the pest or weed control at 200 ppm was 80 to 100%.

Take `CC(c1ccc(C(F)(F)F)nc1)S(C)(=O)=Nc1nc(-c2ccc([N+](=O)[O-])cc2)cs1` (stereo not drawn) [Compound 49]: the pest or weed control at 200 ppm was 80 to 100%.

With `CC(c1ccc(C(F)(F)F)nc1)S(C)(=O)=Nc1nc(-c2cc(-c3ccc(Cl)cc3)no2)cs1` (stereo not drawn) [Compound 42], the pest or weed control at 200 ppm lay within 80 to 100%.

With `CCOC(C)(C)c1csc(N=S(C)(=O)C(C)c2ccc(C(F)(F)F)nc2)n1` (stereo not drawn) [Compound 31], the pest or weed control at 200 ppm lay in the range of 80 to 100%.

Turning to `COc1ccc(-c2csc(N=S(C)(=O)C(C)c3ccc(C(F)(F)F)nc3)n2)c(OC)c1` (stereo not drawn) [Compound 53], the pest or weed control at 200 ppm lay in the range of 80 to 100%.

For the compound `CC(c1ccc(C(F)(F)F)nc1)S(C)(=O)=Nc1nc(-c2ccccc2)co1` (stereo not drawn) [Compound 74], the pest or weed control at 200 ppm was under 80%.

Consider `COc1ccc(-c2csc(N=S(C)(=O)C(C)c3ccc(C(F)(F)F)nc3)n2)cc1` (stereo not drawn) [Compound 23], for which the pest or weed control at 200 ppm was in the range of 80 to 100%.

Turning to `CC(c1ccc(C(F)(F)F)nc1)S(C)(=O)=Nc1ncc(Cc2ccccc2)s1` (racemic) [Compound 61, 5-{1-[(5-benzyl-1,3-thiazol-2-yl)(methyl)sulfonimidoyl]ethyl}-2-(trifluoromethyl)pyridine], the pest or weed control at 200 ppm was in the range of 80 to 100%.

With `Cc1nc(N=S(C)(=O)C(C)c2ccc(C(F)(F)F)nc2)sc1C` (stereo not drawn) [Compound 67, 5-{1-[(4,5-dimethyl-1,3-thiazol-2-yl)(methyl)sulfonimidoyl]ethyl}-2-(trifluoromethyl)pyridine], the pest or weed control at 200 ppm lay within 80 to 100%.
